Source: PubChem BioAssay (NCI)
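Five compound concentrations were applied to cells in 96-well plates for 48 hours; endpoints were derived by simple linear interpolation of the resulting dose-response curve. GI50 is the concentration that inhibits growth by half. TGI denotes the concentration required for complete inhibition of growth.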 Where a SMILES comes first, the peptide text is derived from it.

Tests used:
Assay in all cases: NCI tumour cell line growth inhibition, 48 h
M14 melanoma = test system: M14 melanoma
OVCAR-5 ovarian = test system: OVCAR-5 ovarian
NCI-H226 lung = test system: NCI-H226 lung
MCF7 breast = test system: MCF7 breast
MDA-MB-231 breast = test system: MDA-MB-231 breast
SK-OV-3 ovarian = test system: SK-OV-3 ovarian
EKVX NSCLC = test system: EKVX NSCLC
RPMI-8226 leukemia = test system: RPMI-8226 leukemia
SNB-75 CNS = test system: SNB-75 CNS
HOP-92 NSCLC = test system: HOP-92 NSCLC

Row | SMILES | GI50 (M14 melanoma) [µM] | TGI (M14 melanoma) [µM] | GI50 (OVCAR-5 ovarian) [µM] | TGI (OVCAR-5 ovarian) [µM] | GI50 (NCI-H226 lung) [µM] | TGI (NCI-H226 lung) [µM] | GI50 (MCF7 breast) [µM] | TGI (MCF7 breast) [µM] | GI50 (MDA-MB-231 breast) [µM] | TGI (MDA-MB-231 breast) [µM] | GI50 (SK-OV-3 ovarian) [µM] | TGI (SK-OV-3 ovarian) [µM] | GI50 (EKVX NSCLC) [µM] | TGI (EKVX NSCLC) [µM] | GI50 (RPMI-8226 leukemia) [µM] | TGI (RPMI-8226 leukemia) [µM] | GI50 (SNB-75 CNS) [µM] | TGI (SNB-75 CNS) [µM] | GI50 (HOP-92 NSCLC) [µM] | TGI (HOP-92 NSCLC) [µM]
1 | CCCCNC(=O)Oc1ccc(/C(=C(/C)Cc2ccc(OC)cc2)c2ccc(OCCN3CCCC3)cc2)cc1 | 1.81 | 3.48 | 3.6 | 12.7 | 3.03 | 11.4 | 0.655 | 2.51 | 1.87 | 3.49 | 6.14 | 20.4 | 1.86 | 5.5 | 2.2 | 4.85 | 1.56 | 4.5 |  | 
2 | Cc1ccc(C2=C(c3ccccc3)C(c3ccccc3)Oc3ccc(C)cc32)cc1 (stereo not drawn) | 1.56 | 3.05 | 2.87 | 8.64 | 15.8 | 37.9 | 3.33 | 13.1 | 13 | 30.5 |  |  | 3.2 | 12.8 | 6.97 | 41.3 |  |  | 11.4 | 28.1
3 | CCCCCCCCCCCCCCCC(=O)OCC1OC(OC)C2NP(=O)(N(CCCl)CCCl)OC1C2O (stereo not drawn) |  | 18.1 |  | 59.2 |  | 32.2 |  | 20.5 |  |  |  | 56.1 |  | 47.4 |  | 15.9 |  | 15.2 |  | 5.51
4 | CCCCN[C@H]1C2C3CC4C5CC(C42)C1(C)C53 (stereo partly drawn) |  | > 100 |  | > 100 |  | > 100 |  |  |  |  |  | > 100 |  | > 100 |  | > 100 |  | > 100 |  | > 100
5 | COc1ccc(/C=c2/sc3n(c2=O)NC2(CCC(C)CC2)NN=3)cc1 (stereo not drawn) |  | > 100 |  | > 100 |  | > 100 |  |  |  |  |  | > 100 |  | > 100 |  |  |  | > 100 |  | > 100
6 | CCC(C)C1NC(=O)C2CCCN2C(=O)CNC(=O)C(C)NC(=O)C(Cc2ccccc2)NC(=O)C(C(C)C)NC1=O (stereo not drawn) (cyclo(GPIVFA); configuration not given here) |  | > 100 |  | > 100 |  | > 100 |  |  |  |  |  | > 100 |  | > 100 |  | > 100 |  | > 100 |  | > 100
7 | O=C(Nc1cc(Cl)cc(Cl)c1)/C(Cc1nc2ccccc2[nH]c1=O)=N/NC(=O)c1ccncc1 |  | > 100 |  | > 100 |  |  |  |  |  |  |  | > 100 |  | > 100 |  | > 100 |  |  |  | > 100
8 | COc1ccc(/C=C2\CN(Cc3cn(CCNc4ccnc5cc(Cl)ccc45)nn3)C/C(=C\c3ccc(OC)c(OC)c3)C2=O)cc1OC | 3.35 | 12.5 | 4.55 | 21.5 | 4.04 | 21 | 3.3 | 16 | 2.56 | 7.68 | 4.66 | 24.1 |  |  | 3 | 39 | 6.67 | 40.7 |  | 
9 | CC1C[C@]2(C[C@@H](C)C(=O)O2)O[C@@H]2CC3(C)[C@@H]4CCC5C(C)(C)OC(=O)C[C@H]6OO[C@]4(CC[C@]3(C)C12)CC56O (stereo partly drawn) |  | > 100 |  | > 100 |  | > 100 |  |  |  |  |  | > 100 |  |  |  | > 100 |  | > 100 |  | 
10 | CNS(=O)(=O)NN(C)S(=O)(=O)c1ccc2ccccc2c1 |  | > 100 |  |  |  | > 100 |  |  |  |  |  | > 100 |  | > 100 |  | > 100 |  | > 100 |  | 
11 | O=S(=O)([O-])[O-].[Cl-].[NH2-].[NH2-].[NH2-].[NH2-].[Ru+3].c1ccncc1 |  | > 100 |  | > 100 |  | > 100 |  |  |  |  |  | > 100 |  | > 100 |  | > 100 |  | > 100 |  | > 100
12 | C#CC1(O)c2ccccc2C(=O)c2ccccc21 |  |  |  | > 100 |  | > 100 |  |  |  |  |  |  |  | > 100 |  |  |  |  |  | 99.6
13 | CCOC(=O)[C@H]1Nc2ccc([N+](=O)[O-])cc2C2c3ccccc3CC21 (stereo partly drawn) |  | 34.3 |  | 70.4 |  | 55.1 |  |  |  |  |  |  |  |  |  | > 100 |  | > 100 |  | 
14 | Cc1cc(N2CCCC2)nc(NCc2cc(Nc3ccnc4cc(Cl)ccc34)ccc2F)n1 | 1.37 | 2.85 |  |  |  |  | 0.216 | 1.07 |  |  | 2.04 | 3.89 |  |  | 0.404 | 5.04 |  |  | 1.19 | 2.57
15 | CC(CNCCCNCCNCCCNCO)[N+](=O)[O-] (stereo not drawn) |  | 23.6 |  | 26.8 |  |  |  |  |  |  |  | > 100 |  | 29.9 |  | 35 |  | 35.3 |  | 8.57
16 | COc1cc(-c2cc(/C=C/C(=O)c3ccc(Cl)c(Cl)c3)[nH]n2)cc(OC)c1OC | 18.2 | > 100 | 20.5 | > 100 | 18.6 | > 100 | 1.8 | > 100 | 8.65 | > 100 | 4.19 | 18.8 |  |  | 0.538 | 6.73 |  |  | 2.53 | 8.25
17 | CC1=C(C(=O)Nc2ccc([N+](=O)[O-])cc2)C(c2ccc3c(c2)OCO3)C(C(=O)Nc2ccc([N+](=O)[O-])cc2)=C(C)N1 |  | 50.4 |  | > 100 |  | 55.8 |  |  |  |  |  | > 100 |  | > 100 |  | 68.5 |  | 45.7 |  | 38.9
18 | Cc1ccc(-c2cc(=O)c3cc(C)c(C)c(C(=O)O)c3o2)cc1N |  | > 100 |  | > 100 |  | > 100 |  |  |  |  |  | > 100 |  | > 100 |  | > 100 |  | > 100 |  | 
19 | C=CC/C(=C\COP(=O)(OCc1ccc([N+](=O)[O-])o1)N(C)CCCCCl)CC/C=C(\C)CCC=C(C)C (stereo not drawn) | 4.04 | 18.2 | 15.7 | 29 |  |  |  |  | 12.7 | 34.1 | 16 | 30.6 | 18.9 | 35.7 | 4.66 | 19.3 | 13.5 | 29.1 | 14.5 | 27.6
20 | C=C1C2CC(OC(C)=O)C3(C)C(c4ccoc4)OC(=O)[C@@H](O)[C@]13OC1C[C@H](OC(C)=O)C(C)(C)[C@H](CC(=O)OC)[C@]12C (stereo partly drawn) |  | > 100 |  |  |  | > 100 |  |  |  |  |  | > 100 |  | > 100 |  | > 100 |  | > 100 |  | > 100
21 | CC12CO[C@@](C)(CC(S(=O)(=O)c3ccccc3)C1)O2 (stereo partly drawn) |  | > 100 |  | > 100 |  |  |  |  |  |  |  | > 100 |  | > 100 |  | > 100 |  | > 100 |  | > 100
22 | COc1ccc(/C(Cl)=C(\c2ccc(OCCN(C)C)cc2)c2ccc(OC(=O)C(C)(C)C)cc2)cc1 |  | 12.1 |  | 29.1 |  | 25.7 |  |  |  |  |  | 24.4 |  | 26.6 |  | 30.9 |  | 21.9 |  | 34
